The values that follow come from patent US10800791B2, “Triazole ACC inhibitors and uses thereof” (Gilead Apollo, LLC, priority 2015, dated 2020).

The structures appear in SMILES notation. ≈ marks a conversion by molar mass, not a printed value. Where two headings read alike, the source gives them in different places.

One assay relates to Septoria tritici (St). Nature of the assay: Growth inhibition assay of fungal pathogens, St. It counts as cell-based. The following applies: Zymoseptoria tritici, 48 h, read-out: Concentration at 90% Inhibition St, Septoria tritici. The method in brief:
(§1)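 Spore suspension in 17% V8 liquid media; cpd final 50/10/2 or 2/0.4/0.08 ppm, 2% DMSO. OD600 + visual, 24 & 48 h; % inhibition at 48 h vs 2% DMSO ctrl.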

Another assay has as its system C. krusei. Put plainly: Antifungal Activity Assay (broth microtiter MIC), C. krusei. Format: cell-based, Candida krusei. The settings on record: Pichia kudriavzevii, ATCC6258, 48 h. Summed up:
(§2)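 Susceptibility was determined by CLSI M27-A3 broth microdilution in RPMI 1640 buffered with MOPS. Growth inhibition was scored visually after 48 h.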

Assay [1] deals with Collectotrichum graminicola (Cg). Put plainly: Growth inhibition assay of fungal pathogens, Cg. It counts as cell-based. The settings on record: 48 h, read-out: Concentration at 90% Inhibition Cg, Collectotrichum graminicola. The method in brief: as §1
The test system of assay [2] is Fusarium virguliforme (Fv). Nature of the assay: Growth inhibition assay of fungal pathogens, Fv. It counts as cell-based. The settings on record: 48 h. Summed up:
as §1

The test system of a further assay is C. albicans. Nature of the assay: Antifungal Activity Assay (broth microtiter MIC), C. albicans. The following applies: Candida albicans, ATCC90028, 48 h. Format: cell-based, Candida albicans. Summed up:
as §2

The subject of a further assay is Botrtyis cinerea (Bc). Nature of the assay: Growth inhibition assay of fungal pathogens, Bc. It counts as cell-based. The settings on record: 48 h, read-out: Concentration at 90% Inhibition Bc, Botrtyis cinerea. The method in brief:
as §1

In assay [3] the test system is Fusarium moniliforme (Fm). Nature of the assay: Growth inhibition assay of fungal pathogens, Fm. It counts as cell-based. The settings on record: for Concentration at 90% Inhibition Fm: Fusarium moniliforme, growth inhibition at 48 hours vs 2% DMSO control; for IC90: Fusarium verticillioides, 48 h, read-out: Concentration at 90% Inhibition Fm. The method in brief: as §1

The subject of the next assay is C. parapsilosis. Put plainly: Antifungal Activity Assay (broth microtiter MIC), C. parapsilosis. Format: cell-based, Candida parapsilosis. The settings on record: Lodderomyces parapsilosis, ATCC22019, 48 h. The method in brief: as §2
The test system of another assay is Rhizoctonia solani (Rs). Nature of the assay: Growth inhibition assay of fungal pathogens, Rs. It counts as cell-based. The following applies: 48 h.
The next assay relates to Diplodia maydis (Dm). Nature of the assay: Growth inhibition assay of fungal pathogens, Dm. It counts as cell-based. The following applies: Stenocarpella maydis, 48 h, read-out: Concentration at 90% Inhibition Dm, Diplodia maydis. The method in brief: as §1
[4] abbreviates: growth inhibition at 48 hours vs 2% DMSO control.
Where [5] appears, read: growth inhibition vs 2% DMSO control at 48 hours.
Setting [6] is: read-out: MIC, C. krusei ATCC 6258, Table 3a, 3 replicates, MIC recorded at 48 h.
[7] abbreviates: read-out: MIC, C. krusei ATCC 6258, Table 3b (additional results), 3 replicates, MIC recorded at 48 h.
The mark [8] stands for this setting: read-out: Concentration at 90% Inhibition Fv, Fusarium virguliforme, growth inhibition at 48 hours vs 2% DMSO control.
Where [9] appears, read: read-out: Concentration at 90% Inhibition Fv, Fusarium virguliforme, growth inhibition vs 2% DMSO control at 48 hours.
Setting [10] is: read-out: MIC, C. albicans ATCC 90028, Table 3a, 3 replicates, MIC recorded at 48 h.
[11] abbreviates: read-out: MIC, C. albicans ATCC 90028, Table 3b (additional results), 3 replicates, MIC recorded at 48 h.
The mark [12] stands for this setting: read-out: MIC, C. parapsilosis ATCC 22019, Table 3a, 3 replicates, MIC recorded at 48 h.
The mark [13] stands for this setting: read-out: MIC, C. parapsilosis ATCC 22019, Table 3b (additional results), 3 replicates, MIC recorded at 48 h.
[14] abbreviates: read-out: Concentration at 90% Inhibition Rs, Rhizoctonia solani, mycelial plugs, growth inhibition at 48 hours vs 2% DMSO control.
Setting [15] is: read-out: Concentration at 90% Inhibition Rs, Rhizoctonia solani, mycelial plugs, growth inhibition vs 2% DMSO control at 48 hours.

One may read the MIC as the lowest concentration that inhibits growth of the organism. Consider `COc1ccc(F)cc1[C@H](Cn1c(=O)n(C(C)(C)C(=O)N2CCOCC2)c(=O)c2c(C)c(-n3nccn3)sc21)OC(C)C` [Compound I-5, (R)-1-(2-(5-fluoro-2-methoxyphenyl)-2-isopropoxyethyl)-5-methyl-3-(2-methyl-1-morpholino-1-oxopropan-2-yl)-6-(2H-1,2,3-triazol-2-yl)thieno[2,3-d]pyrimidine-2,4(1H,3H)-dione], for which the IC90 with Septoria tritici (St) (setting [4]) was 10 µg/mL (≈ 16.3 µM); in the assay with Septoria tritici (St) (setting [5]), over 50 µg/mL; in [1] (setting [4]) it was 2 µg/mL (≈ 3.25 µM); in [1] (setting [5]) it was 2 µg/mL (≈ 3.25 µM); in [2] (setting [8]), 0.4 µg/mL (≈ 0.651 µM); in [2] (setting [9]) it was 0.4 µg/mL (≈ 0.651 µM). Also, the IC90 in the assay on Botrtyis cinerea (Bc) (setting [4]) is 0.4 µg/mL (≈ 0.651 µM); in the assay on Botrtyis cinerea (Bc) (setting [5]), 0.4 µg/mL (≈ 0.651 µM); in assay [3], 0.08 µg/mL (≈ 0.13 µM); in the assay with Rhizoctonia solani (Rs) (setting [14]), 0.4 µg/mL (≈ 0.651 µM); in the assay with Rhizoctonia solani (Rs) (setting [15]), 0.4 µg/mL (≈ 0.651 µM); with Diplodia maydis (Dm) (setting [4]) it was 2 µg/mL (≈ 3.25 µM). Moreover, the IC90 in the assay with Diplodia maydis (Dm) (setting [5]) is 2 µg/mL (≈ 3.25 µM). In addition, the MIC in the assay on C. krusei (setting [6]) was 1.1 to 2 µg/mL (≈ 1.79 to 3.25 µM); with C. krusei (setting [7]) it was 2.01 to 4 µg/mL (≈ 3.27 to 6.51 µM); in the assay on C. albicans (setting [10]) it was 2.1 to 4 µg/mL (≈ 3.42 to 6.51 µM); with C. albicans (setting [11]) it was 2.01 to 4 µg/mL (≈ 3.27 to 6.51 µM); in the assay with C. parapsilosis (setting [12]), 2.1 to 4 µg/mL (≈ 3.42 to 6.51 µM); in the assay on C. parapsilosis (setting [13]) it was over 4.01 µg/mL. For the same compound, the “Concentration at 90% Inhibition Fm” value in assay [3] is listed as “AA (compound concentration of 0.08 ppm at 90% inhibition of fungal pathogens)”.
Consider `COc1ccc(F)cc1[C@H](Cn1c(=O)n(C(C)(C)C(=O)N2CCCCC2)c(=O)c2c(C)c(-n3nccn3)sc21)OC(C)C` [Compound I-6, (R)-1-(2-(5-fluoro-2-methoxyphenyl)-2-isopropoxyethyl)-5-methyl-3-(2-methyl-1-oxo-1-(piperidin-1-yl)propan-2-yl)-6-(2H-1,2,3-triazol-2-yl)thieno[2,3-d]pyrimidine-2,4(1H,3H)-dione], for which the IC90 in the assay on Septoria tritici (St) (setting [4]) worked out at 2 µg/mL (≈ 3.26 µM); in the assay on Septoria tritici (St) (setting [5]) it was 10 µg/mL (≈ 16.3 µM); in assay [1] (setting [4]), 0.08 µg/mL (≈ 0.131 µM); in assay [1] (setting [5]), 0.08 µg/mL (≈ 0.131 µM); in [2] (setting [8]), 0.08 µg/mL (≈ 0.131 µM); in assay [2] (setting [9]), 0.08 µg/mL (≈ 0.131 µM). Further, the IC90 (in the assay with Botrtyis cinerea (Bc) (setting [4]); in the assay with Botrtyis cinerea (Bc) (setting [5]); in assay [3]; in the assay on Rhizoctonia solani (Rs) (setting [14]); in the assay on Rhizoctonia solani (Rs) (setting [15]); with Diplodia maydis (Dm) (setting [4])) was 0.08 µg/mL (≈ 0.131 µM) throughout. In addition, in the assay on Diplodia maydis (Dm) (setting [5]), the IC90 was 0.08 µg/mL (≈ 0.131 µM). In addition, the MIC with C. krusei (setting [6]) fell in the range of 0.25 to 1 µg/mL (≈ 0.408 to 1.63 µM); with C. krusei (setting [7]), 0.25 to 1 µg/mL (≈ 0.408 to 1.63 µM); in the assay with C. albicans (setting [10]), 0.25 to 1 µg/mL (≈ 0.408 to 1.63 µM); in the assay with C. albicans (setting [11]), 0.25 to 1 µg/mL (≈ 0.408 to 1.63 µM); in the assay with C. parapsilosis (setting [12]), 1.1 to 2 µg/mL (≈ 1.8 to 3.26 µM); with C. parapsilosis (setting [13]), 1.01 to 2 µg/mL (≈ 1.65 to 3.26 µM). Moreover, in assay [3], the “Concentration at 90% Inhibition Fm” value is on record as “AA (compound concentration of 0.08 ppm at 90% inhibition of fungal pathogens)”.
